In patent US8822430B2 (Gilead Sciences, Inc., priority 2009, dated 2014):

test system: HCV 1b RLuc cells (dicistronic genotype 1b Con1 replicon); experiment: Renilla luciferase (RLuc)-based HCV replicon reporter assay; assay type: cell-based, HCV genotype 1b; conditions: Hepatitis C virus, 72 h, HCV 1b RLuc replicon, 72 hours; read-out: Activity (antiviral potency [EC50])
Procedure, shortened: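 HCV 1b RLuc cells carrying a dicistronic genotype 1b Con1 replicon were treated with serially diluted compounds from 10 mM DMSO stocks. After 72 h, cells were lysed and Renilla luciferase activity measured. EC50 was obtained by non-linear regression.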

Structure (SMILES)	EC50
COC(=O)N[C@H](C(=O)N1CCC[C@H]1c1ncc(-c2ccc(-c3ccc(-c4ccc(-c5cnc([C@@H]6CCCN6C(=O)[C@@H](NC(=O)OC)C(C)C)[nH]5)cc4)cc3)cc2)[nH]1)C(C)C	0.024 nM
COC(=O)N[C@H](C(=O)N1CCC[C@H]1c1ncc(-c2ccc(-c3ccc(-c4cnc([C@@H]5CN(c6ccccc6)CN5C(=O)[C@@H](NC(=O)OC)C(C)C)[nH]4)cc3)cc2)[nH]1)C(C)C	0.0074 nM
COC(=O)N[C@H](C(=O)N1CCC[C@H]1c1ncc(-c2ccc(-c3ccc(-c4cnc([C@@H]5CN(C(=O)c6ccccc6)CN5C(=O)[C@@H](NC(=O)OC)C(C)C)[nH]4)cc3)cc2)[nH]1)C(C)C	0.0136 nM
COC(=O)N[C@H](C(=O)N1CCC[C@H]1c1ncc(-c2ccc(-c3ccc(-c4cnc([C@@H]5CN(CC(F)(F)F)CN5C(=O)[C@@H](NC(=O)OC)C(C)C)[nH]4)cc3)cc2)[nH]1)C(C)C	0.0074 nM
COC(=O)N[C@@H](C)C(=O)N1[C@@H](c2ccccc2)CC[C@H]1c1ncc(-c2ccc(-c3ccc4cc(-c5cnc([C@@H]6CCCN6C(=O)[C@@H](NC(=O)OC)C(C)C)[nH]5)ccc4c3)cc2)[nH]1	0.788 nM
COC(=O)NC(C(=O)N1CCC[C@H]1c1ncc(-c2ccc(-c3ccc4cc(-c5cnc([C@@H]6CCCN6C(=O)[C@@H](NC(=O)OC)C(C)C)[nH]5)ccc4c3)cc2)[nH]1)c1ccsc1 (stereo partly drawn)	0.0197 nM
COC(=O)N[C@@H](Cc1ccccc1)C(=O)N1CCC[C@H]1c1ncc(-c2ccc(-c3ccc4cc(-c5cnc([C@@H]6CCCN6C(=O)[C@@H](NC(=O)OC)C(C)C)[nH]5)ccc4c3)cc2)[nH]1	0.0181 nM
COC(=O)N[C@H](C(=O)N1CCC[C@H]1c1ncc(-c2ccc3cc(-c4ccc(-c5cnc([C@@H]6CCCN6C(=O)[C@@H](Cc6ccccc6)NC(=O)OC)[nH]5)cc4)ccc3c2)[nH]1)C(C)C	0.858 nM
COC(=O)N[C@H](C(=O)N1CCC[C@H]1c1ncc(-c2ccc3cc(-c4ccc(-c5cnc([C@@H]6C[C@H](c7ccccc7)CN6C(=O)[C@@H](NC(=O)OC)C(C)C)[nH]5)cc4)ccc3c2)[nH]1)C(C)C	0.0189 nM
COC(=O)NC(C(=O)N1CCC[C@H]1c1ncc(-c2cc3sc(-c4ccc5nc([C@@H]6CCCN6C(=O)[C@@H](NC(=O)OC)C(C)C)[nH]c5c4)cc3s2)[nH]1)C(C)C (stereo partly drawn)	0.0229 nM
COC(=O)NC(C(=O)N1CCC[C@H]1c1ncc(-c2ccc3cc(-c4ccc(-c5cnc([C@@H]6C[C@H](OC(F)F)CN6C(=O)[C@@H](NC(=O)OC)C(C)C)[nH]5)cc4)ccc3c2)[nH]1)c1ccccc1 (stereo partly drawn)	0.0171 nM
C=C1C[C@@H](c2ncc(-c3ccc(-c4ccc5cc(-c6cnc([C@@H]7CCCN7C(=O)[C@@H](NC(=O)OC)C(C)C)[nH]6)ccc5c4)cc3)[nH]2)N(C(=O)[C@@H](NC(=O)OC)C(C)C)C1	0.0113 nM
COC(=O)N[C@H](C(=O)N1CCC[C@H]1c1ncc(-c2ccc3cc(-c4ccc(-c5cnc([C@@H]6CCCN6C(=O)[C@@H](Cc6cn(C)c7ccccc67)NC(=O)OC)[nH]5)cc4)ccc3c2)[nH]1)C(C)C	6.18 nM
COC(=O)N[C@H](C(=O)N1CCC[C@H]1c1ncc(-c2ccc3cc(-c4ccc(-c5cnc([C@@H]6CCCN6C(=O)[C@H](NC(=O)OC)c6ccc(F)cc6)[nH]5)cc4)ccc3c2)[nH]1)C(C)C	0.0142 nM
COC(=O)N[C@H](C(=O)N1CCC[C@H]1c1ncc(-c2ccc3cc(-c4ccc(-c5cnc([C@@H]6CCCN6C(=O)[C@H](O)c6ccccc6)[nH]5)cc4)ccc3c2)[nH]1)C(C)C	0.0097 nM
COC(=O)N[C@H](C(=O)N1CCC[C@H]1c1ncc(-c2ccc3cc(-c4ccc(-c5cnc([C@@H]6CCCN6C(=O)[C@H](OC)c6ccccc6)[nH]5)cc4)ccc3c2)[nH]1)C(C)C	0.0163 nM
COC(=O)N[C@H](C(=O)N1CCC[C@H]1c1ncc(-c2ccc3c(c2)COc2c-3ccc3cc(-c4cnc([C@@H]5CCCN5C(=O)[C@@H](NC(=O)OC)C5CCOCC5)[nH]4)ccc23)[nH]1)C1CCOCC1	0.0417 nM

Structure (SMILES)	EC50
COC(=O)N[C@H](C(=O)N1CCC[C@H]1c1ncc(-c2ccc(-c3ccc4cc(-c5cnc([C@@H]6CCCN6C(=O)[C@@H](NC(=O)OC)C(C)C)[nH]5)ccc4c3)cc2)[nH]1)c1ccsc1	0.0906 nM
COC(=O)N[C@H](C(=O)N1CCC[C@H]1c1ncc(-c2ccc3cc(-c4ccc(-c5cnc([C@@H]6CCCN6C(=O)[C@H](NC(=O)OC)c6ccsc6)[nH]5)cc4)ccc3c2)[nH]1)C(C)C	0.0157 nM
COC(=O)NC(C(=O)N1CCC[C@H]1c1ncc(-c2cc3sc(C#Cc4cnc([C@@H]5CCCN5C(=O)[C@@H](NC(=O)OC)C(C)C)[nH]4)cc3s2)[nH]1)C(C)C (stereo partly drawn)	0.0503 nM
COC(=O)N[C@H](C(=O)N1CCC[C@H]1c1ncc(-c2ccc3cc(-c4ccc5[nH]c([C@@H]6CCN6C(=O)[C@@H](NC(=O)OC)C(C)C)nc5c4)ccc3c2)[nH]1)C(C)C	0.026 nM
COC(=O)N[C@H](C(=O)N1CCC[C@H]1c1ncc(-c2ccc(-c3ccc(-c4ccc5nc([C@@H]6CCN6C(=O)[C@@H](NC(=O)OC)C(C)C)[nH]c5c4)cc3)cc2)[nH]1)C(C)C	0.0282 nM
COC(=O)N[C@H](C(=O)N1CCC[C@H]1c1ncc(-c2ccc3cc(-c4ccc5nc([C@@H]6CCN6C(=O)[C@H](NC(=O)OC)c6ccccc6)[nH]c5c4)ccc3c2)[nH]1)C(C)C	0.07 nM
COC(=O)N[C@H](C(=O)N1CC[C@H]1c1nc2ccc(-c3ccc(-c4ccc(-c5cnc([C@@H]6CCCN6C(=O)[C@H](NC(=O)OC)c6ccccc6)[nH]5)cc4)cc3)cc2[nH]1)C(C)C	0.0195 nM
COC(=O)N[C@H](C(=O)N1CCC[C@H]1c1ncc(-c2ccc3cc(-c4ccc(-c5cnc([C@@H]6CC(=O)CN6C(=O)[C@@H](NC(=O)OC)C(C)C)[nH]5)cc4)ccc3c2)[nH]1)C(C)C	0.0103 nM
COC(=O)N[C@H](C(=O)N1CCC[C@H]1c1ncc(-c2ccc(-c3ccc4cc(-c5cnc([C@@H]6CCCN6C(=O)[C@@H](NC(=O)OC)C(C)C)[nH]5)ccc4c3)cc2)[nH]1)c1ccc(F)cc1	0.043 nM
COC(=O)N[C@H](C(=O)N1CCC[C@H]1c1ncc(-c2ccc3cc(-c4ccc(-c5cnc(-c6cccn6S(=O)(=O)c6ccccc6)[nH]5)cc4)ccc3c2)[nH]1)C(C)C	24.1 nM
COC(=O)N[C@H](C(=O)N1Cc2ccccc2C1c1ncc(-c2ccc(-c3ccc(-c4cnc([C@@H]5CCCN5C(=O)[C@@H](NC(=O)OC)C(C)C)[nH]4)cc3)cc2)[nH]1)C(C)C (stereo partly drawn)	0.0414 nM
COC(=O)N[C@H](C(=O)N1CCC[C@H]1c1ncc(-c2ccc3cc(-c4ccc(-c5cnc([C@@H]6CCCN6C(=O)[C@H](NC(=O)OC)c6cccs6)[nH]5)cc4)ccc3c2)[nH]1)C(C)C	0.0262 nM
COC(=O)NC(C(=O)N1CCC[C@H]1c1ncc(-c2ccc3c(c2)COc2c-3ccc3cc(-c4cnc([C@@H]5CCCN5C(=O)C(NC(=O)OC)c5ccccc5)[nH]4)ccc23)[nH]1)c1ccccc1 (stereo partly drawn)	0.0275 nM
COC(=O)N[C@H](C(=O)N1CCC[C@H]1c1ncc(-c2ccc3cc(-c4ccc(-c5cnc([C@@H]6CCCN6C(=O)[C@H](OC(=O)N(C)C)c6ccccc6)[nH]5)cc4)ccc3c2)[nH]1)C(C)C	0.0083 nM
COC(=O)N[C@H](C(=O)N1CCC[C@H]1c1ncc(-c2ccc3cc(-c4ccc(-c5cnc([C@@H]6CCCN6C(=O)[C@@H](OC(=O)N(C)C)c6ccccc6)[nH]5)cc4)ccc3c2)[nH]1)C(C)C	0.0794 nM
COC(=O)NC(C(=O)N1CCC[C@H]1c1ncc(-c2cc3sc(-c4ccc(-c5cnc([C@@H]6CCCN6C(=O)[C@H](NC(=O)OC)c6ccccc6)[nH]5)cc4)cc3s2)[nH]1)C(C)C (stereo partly drawn)	0.0059 nM
